Data: US11160826B1, “Cholesterol lowering drugs for the treatment of hepatic encephalopathy” (United States Government as represented by the Department …, priority 2017, dated 2021)
Entries after “also recorded” stand apart in the source; their conditions may differ.

Legend:
Cyp46A1 = assay: Expression of Cyp46A1 in primary cortical neuronal culture; format: cell-based, mouse; conditions: 10 μM with 10 μM DCA, 24 hr
Source text: Primary cortical neurons were isolated and cultured using methodology previously described (McMillin, M. et al. (2014) Journal of hepatology 61(6): 1260-6). Primary neurons were isolated from P1 mouse pups. Mice were decapitated and whole brains were removed. The cortex was isolated and meninges and dura were removed. Cortical tissue was mechanically disrupted and filtered through a 100 μm filter. Neurons were pelleted by centrifugation at 1400 g. Neurons were suspended in media and plated on 12-well plates with 750,000 cells per well. After 24 hours, cells were washed and media was replaced and supplemented with 2% B27 growth supplement. […] At this point, cells were lysed and used for immunoblot or RTPCR analyses.
RNA was extracted from tissue or primary neurons using an RNeasy Mini Kit (Qiagen, Germantown, Md.) according to the manufacturer's instructions. Synthesis of cDNA was accomplished using a Bio-Rad iScript™ cDNA Synthesis Kit. […]
Specific antibodies against Cyp46A1 and β-actin were used. […] Data are expressed as fold change in fluorescent band intensity of target antibody divided by β-actin or GAPDH, which are used as loading controls. […] Band intensity quantifications were performed using ImageJ software.

[1] = tested on: models of Niemann-Pick Type C disease; conditions: Davidson et al. 2009; cited from earlier work
[2] = tested on: AOM-induced acute liver failure; assay: DigiGait ventral plane gait analysis of AOM-treated mice; format: in vivo, C57Bl/6 mice; conditions: approximately 16 hours after AOM injection
Method: (§1) Acute liver failure and HE was induced using the hepatotoxin azoxymethane (AOM) as previously described (McMillian, M. et al. (2016) Am. J. Pathol. 186(2): 312-23; McMillin, M. et al. Front Cell Neurosci. (2017) 11: 191; McMillin, M. et al. (2014) Journal of Hepatology 6(1): 1260-6; McMillin, M. et al. (2016) J. Neuroinflammation 13(1): 198). Briefly, C57Bl/6 or Cyp7A1−/− mice were injected with AOM (100 mg/kg ip) and placed on heating pads set to 37° C. to ensure normothermia. To reduce serum and cortical bile acid levels, C57Bl/6 mice were fed a diet supplemented with 2% cholestyramine (Dyets Inc.; Bethelhem, Pa.), or the control diet AIN-93G, for 3 days prior to the injection of AOM. […] This same approach was used to infuse 2-hydroxypropyl-β-cyclodextrin (2-HβC; 6 mg/kg/day, MilliporeSigma) to inhibit cholesterol accumulation. The infusion cannulas were implanted using the co-ordinates AP −0.34, ML −1.0, DV −2.0. This surgery was performed 3 days prior to the injection of AOM to allow the mice to recover prior to the onset of acute liver failure to minimize mortality.
Starting at 12 hr after injection, mice were monitored at least every 2 hours for body temperature, weight and neurological score as previously described (McMillin, M. et al. Front Cell Neurosci. (2017) 11: 191; McMillin, M. et al. (2016) J. Neuroinflammation 13(1): 198). The neurological score was assessed by an investigator blind to the treatment groups and is a summation of the scores given for the following parameters: pinna reflex, corneal reflex, tail flexion, escape response, righting reflex and gait. […] These paw prints were analyzed using DigiGait Analysis and Imager software (Mouse Specifics Inc, Framingham, Mass., USA) and measures of neuromuscular function were quantified, including the paw angle in fore- and hind limbs (to measure the degree of external rotation), gait symmetry (ratio of forelimb stepping frequency to hindlimb stepping frequency) and the ataxia coefficient for fore and hind limbs (calculated by [maximum stride length−minimum stride length]/average stride length).

AOM-induced liver damage = assay: Assessment of liver damage and function (H&E, plasma ALT, AST); format: in vivo, C57Bl/6 mice; conditions: 20 hour post-AOM injection; central (ICV) infusion
Method: as §1, with “This surgery was performed 3 days prior to the injection of AOM to allow the mice to recover prior to the onset of acute liver failure to minimize mortality.” left out
Liver damage was assessed by H&E staining according to previously published protocols (McMillin, M. et al. (2017) Front Cell Neurosci. 11: 191). […]
Liver function was assessed by measuring plasma alanine aminotransferase (ALT) and aspartate aminotransferase (AST) using the IDEXX Catalyst One machine from IDEXX Laboratories, Inc (Westbrook, […].).

cholesterol = assay: Measurement of brain cholesterol (total/free kit, Nile Red, Filipin III staining); format: in vivo, C57Bl/6 mice
Method: as §1
Total, free and esterified cholesterol was assessed in brain homogenates using a BioVision Total Cholesterol and Cholesteryl Ester Assay Kit following the instructions from the vendor. The subcellular location of cholesterol was assessed using Nile Red staining (for intracellular cholesterol (Pol, A. et al. (2001) J. Cell Biol. 152(5): 1057-70)) and Filipin III staining (for membrane bound cholesterol (Vanier and Latour (2015) Methods Cell Biol. 126: 357-75)). Briefly, mice were transcardially perfused with ice-cold phosphate buffered saline (PBS), followed by 4% paraformaldehyde (PFA) in PBS. Whole brains were rapidly removed and post-fixed in PFA overnight at 4° C. Brains were cryoprotected in 30% sucrose (in PBS) and embedded in OCT compound. Thirty micrometer sections were cut through the frontal cortex region; sections were rinsed in PBS and further fixed in 4% PFA for 10 minutes at room temperature. Free-floating sections were incubated with Filipin III (0.5 μg/mL in 10% bovine serum albumin/PBS) for 2 hours at room temperature, or with Nile Red (10 μg/mL in PBS) for 30 minutes at room temperature. Sections were washed in PBS, mounted onto microscope slides and imaged using a Bio-Rad Zoe™ Fluorescent Cell Imager (Hercules, Calif.). Field images were quantified for percent-positive area of Nile Red or Filipin III staining using ImageJ software (National Institutes of Health, Bethesda, Md.).

[3] = tested on: AOM-induced acute liver failure; assay: Neurological score and time to coma in the AOM mouse model of acute liver failure / hepatic encephalopathy; format: in vivo, C57Bl/6 mice; conditions: ICV infusion started 3 days prior to AOM; for neurological decline (neurological score): AOM-treated mice (100 mg/kg ip), 100 mg/kg; for time taken to reach hepatic coma: AOM-treated mice
Method: as §1
Starting at 12 hr after injection, mice were monitored at least every 2 hours for body temperature, weight and neurological score as previously described (McMillin, M. et al. Front Cell Neurosci. (2017) 11: 191; McMillin, M. et al. (2016) J. Neuroinflammation 13(1): 198). The neurological score was assessed by an investigator blind to the treatment groups and is a summation of the scores given for the following parameters: pinna reflex, corneal reflex, tail flexion, escape response, righting reflex and gait. Each parameter was assigned a score between 2 (normal) and 0 (absence of reflexes and presence of severe ataxia), and summed to give a neurological score out of 12. At approximately 16 hours after AOM injection, the gait of these experimental mice was further examined using ventral plane imaging technology (DigiGait, Mouse Specifics Inc, Framingham, Mass., USA) which images the underside of animals walking atop a motorized, transparent treadmill belt thereby generating digital paw prints. These paw prints were analyzed using DigiGait Analysis and Imager software (Mouse Specifics Inc, Framingham, Mass., USA) and measures of neuromuscular function were quantified, including the paw angle in fore- and hind limbs (to measure the degree of external rotation), gait symmetry (ratio of forelimb stepping frequency to hindlimb stepping frequency) and the ataxia coefficient for fore and hind limbs (calculated by [maximum stride length−minimum stride length]/average stride length). […]

[4] = tested on: AOM-induced acute liver failure; conditions: mouse model of acute liver failure, McMillin et al. 2016; cited from earlier work
[5] = AOM-treated mice, coma time point, pretreatment from 3 days prior to AOM
[6] = listed as 2-hydroxypropyl-cyclodextrin

Question: Which “DCA-induced decrease of Cyp46A1 expression in primary neurons” value (Cyp46A1) does the source give for C/C=C1\C(=O)C[C@H]2[C@@H]3CCC4=CC(=O)CC[C@]4(C)[C@H]3CC[C@]12C [guggulsterone, Guggulsterone] here?
Answer: could be prevented by pre-treatment

Question: Which results are given for 2-hydroxypropyl-β-cyclodextrin [2-HβC]?
Answer: excessive cholesterol buildup in the brain [1]: prevent excessive cholesterol buildup in the brain; ataxia co-efficient of fore and hind limbs [2]: returned the ataxia co-efficient back to control levels; gait symmetry (ratio of forelimb to hind limb stepping frequency) [2]: returned the gait symmetry to control levels; paw angle of fore and hind limbs (degree of external rotation) [2]: reduced the paw angle of AOM-treated mice to values similar to control; AOM-induced liver damage (H&E staining, ALT, AST) (AOM-induced liver damage): does not have any hepatoprotective effects; also recorded: does not influence liver function; cortex cholesterol accumulation (cholesterol; AOM-treated mice, FIG. 17 legend): reduced; AOM-induced increase in Filipin III staining (membrane-bound cholesterol) in the cortex (cholesterol; [5]): attenuated the AOM-induced increase; AOM-induced increase in Nile Red staining (intracellular cholesterol) in the cortex (cholesterol; [5]): attenuated the AOM-induced increase; AOM-induced increase in free cholesterol content in the cortex (cholesterol; [5]): did prevent the AOM-induced buildup; AOM-induced increase in total cholesterol content in the cortex (cholesterol; [5]): did prevent the AOM-induced buildup; basal levels of cholesterol in the cortex (cholesterol; vehicle-treated mice, infusion into the brain): did not decrease; neurological decline (neurological score) [3]: significantly delayed the neurological decline; also recorded: reduces neurological decline; neurological decline (neurological score) [3, 6]: dramatically delayed the onset of neurological complications; time taken to reach hepatic coma [3]: increased the time taken to reach hepatic coma; time taken to reach hepatic coma [3, 6]: increased the time it took the mice to reach hepatic coma

Question: Which “neurological decline associated with acute liver failure (previous studies)” value [4] does the source give for C[C@H](CCC(=O)O)[C@H]1CC[C@H]2[C@@H]3[C@H](O)C[C@@H]4C[C@H](O)CC[C@]4(C)[C@H]3C[C@H](O)[C@]12C [cholic acid] here?
Answer: worsened the neurological decline
